Where a name gives a salt, the structure may show the parent alone.
Assays:
SARS-CoV-2 PLpro = target: T1, SARS-CoV-2 PLpro (Severe acute respiratory syndrome coronavirus 2, UniProt P0DTD1); test: biochemical; conditions: 60 nM papain-like protease, 50 μM Z-RLRGG-AMC, pH 7.5, 37° C.; read-out: SARS-CoV-2 PLpro IC50
T1 construct: containing 60 nM papain-like protease

[1] = test system: human Hep G2 cells (ATCC HB-8065); test: Cytotoxicity in Hep G2 cells (CellTiter-Glo); assay type: cell-based; conditions: Hep G2 cells, 100 μM test article, 24-hour exposure

| SMILES | IC50 (SARS-CoV-2 PLpro) | % Cell Viability [1] |
| --- | --- | --- |
| COc1ccc([C@@H](C)NC(=O)c2cc(N3CC4CNCC4C3)ccc2C)cc1OC (stereo partly drawn) [Example 36, 5-(2,3,3a,4,6,6a-Hexahydro-1H-pyrrolo[3,4-c]pyrrol-5-yl)-N-[(1R)-1-(3,4-dimethoxyphenyl)ethyl]-2-methyl-benzamide] | < 2 µM | 98.0% |
| COc1ccc([C@@H](C)NC(=O)c2cc(N3CCN(C)CC3)ccc2C)cc1O [Example 291, N-[(1R)-1-(3-Hydroxy-4-methoxy-phenyl)ethyl]-2-methyl-5-(4-methylpiperazin-1-yl)benzamide] | < 5 µM | 97.4% |
| Cc1ccc(N2CCN(C)CC2)cc1C(=O)N[C@H](C)c1cccc(-c2nccs2)c1 [Example 65, 2-Methyl-5-(4-methylpiperazin-1-yl)-N-[(1R)-1-(3-thiazol-2-ylphenyl)ethyl]benzamide] | < 2 µM | 77.6% |
| Cc1ccc(N2CCN(C)CC2)cc1C(=O)N[C@H](C)c1cccc(-c2c(C)nn(C)c2C)c1 [Example 62, 2-Methyl-5-(4-methylpiperazin-1-yl)-N-[(1R)-1-[3-(1,3,5-trimethylpyrazol-4-yl)phenyl]ethyl]benzamide] | < 2 µM | 56.6% |
| Cc1ccc(N2CCN(C)CC2)cc1C(=O)N[C@H](C)c1cccc(-c2cccc(CS(C)(=O)=O)c2)c1 [Example 52, 2-Methyl-5-(4-methylpiperazin-1-yl)-N-[(1R)-1-[3-[3 (methylsulfonylmethyl)phenyl]phenyl]ethyl]benzamide] | < 2 µM | 49.0% |
| Cc1ccc(N2CC3(CNC3)C2)cc1C(=O)N[C@H](C)c1cccc2ccccc12 [Example 17, 5-(2,6-Diazaspiro[3.3]heptan-2-yl)-2-methyl-N-[(1R)-1-(1-naphthyl)ethyl]benzamide] | < 5 µM | 34.7% |
| Cc1ccc(N2CCN(C)CC2)cc1C(=O)N[C@H](C)c1ccc(C)c(-c2cnn(C)c2)c1 [Example 228, 2-Methyl-N-[(1R)-1-[4-methyl-3-(1-methylpyrazol-4-yl)phenyl]ethyl]-5-(4-methylpiperazin-1-yl)benzamide] | < 2 µM | 69.9% |
| Cc1ccc(N2CCN(C)CC2)cc1C(=O)N[C@H](C)c1ccc(OCCO)c(-c2cnn(C)c2)c1 [Example 282, N-[(1R)-1-[4-(2-Hydroxyethoxy)-3-(1-methylpyrazol-4-yl)phenyl]ethyl]-2-methyl-5-(4-methylpiperazin-1-yl)benzamide] | < 2 µM | 100.0% |
| Cc1ccc(N2CCN(CCC(=O)O)CC2)cc1C(=O)N[C@H](C)c1cccc(-c2cccc(CO)c2)c1 [Example 170, 3-[4-[3-[[(1R)-1-[3-[3-(Hydroxymethyl)phenyl]phenyl]ethyl]carbamoyl]-4-methyl-phenyl]piperazin-1-yl]propanoic Acid] | < 5 µM | 107.9% |
| COc1cc(-c2cnn(C)c2)cc([C@@H](C)NC(=O)c2cc(N3CCNC4(CC4)C3)ccc2C)c1 [Example 264, 5-(4,7-Diazaspiro[2.5]octan-7-yl)-N-[(1R)-1-[3-methoxy-5-(1-methylpyrazol-4-yl)phenyl]ethyl]-2-methyl-benzamide] | < 2 µM | 68.5% |
| COc1ccc([C@@H](C)NC(=O)c2cc(N3CCN(C)CC3)ccc2C)cc1-c1ccncc1 [Example 211, N-[(1R)-1-[4-Methoxy-3-(4-pyridyl)phenyl]ethyl]-2-methyl-5-(4-methylpiperazin-1-yl)benzamide] | < 2 µM | 86.0% |
| COc1ccc([C@@H](C)NC(=O)c2cc(N3CCN(C)CC3)ccc2C)cc1-c1cnn(C(F)F)c1 [Example 208, N-[(1R)-1-[3-[1-(Difluoromethyl)pyrazol-4-yl]-4-methoxy-phenyl]ethyl]-2-methyl-5-(4-methylpiperazin-1-yl)benzamide] | < 2 µM | 87.8% |
| COc1ccc([C@@H](C)NC(=O)c2cc(N3CC4(CCNCC4)C3)ccc2C)cc1-c1cnn(C)c1 [Example 258, 5-(2,7-Diazaspiro[3.5]nonan-2-yl)-N-[(1R)-1-[4-methoxy-3-(1-methylpyrazol-4-yl)phenyl]ethyl]-2-methyl-benzamide] | < 2 µM | 81.8% |
| Cc1ccc(N2CCN(C)CC2)cc1C(=O)N[C@H](C)c1cccc(-c2c(C)n[nH]c2C)c1 [Example 58, N-[(1R)-1-[3-(3,5-Dimethyl-1H-pyrazol-4-yl)phenyl]ethyl]-2-methyl-5-(4-methylpiperazin-1-yl)benzamide] | < 2 µM | 86.7% |
| Cc1ccc(N2CCS(=O)(=O)CC2)cc1C(=O)N[C@H](C)c1cccc2ccccc12 [Example 26, 5-(1,1-Dioxo-1,4-thiazinan-4-yl)-2-methyl-N-[(1R)-1-(1-naphthyl)ethyl]benzamide] | < 100 µM | 82.8% |
| C[C@@H](NC(=O)c1cc(N2CCN(C)CC2)ccc1Cl)c1cccc2ccccc12 [Example 130, 2-Chloro-5-(4-methylpiperazin-1-yl)-N-[(1R)-1-(1-naphthyl)ethyl]benzamide] | < 10 µM | 1.0% |
| Cc1ccc(N2CCN(C)CC2)cc1C(=O)N[C@H](C)c1cccc(C(=O)N(C)C)c1 [Example 311, N-[(1R)-1-[3-(Dimethylcarbamoyl)phenyl]ethyl]-2-methyl-5-(4-methylpiperazin-1-yl)benzamide] | < 20 µM | 130.7% |
| COc1ccc([C@@H](C)NC(=O)c2cc(N3CCN(C)CC3)ccc2C)cc1 [Example 30, N-[(1R)-1-(4-Methoxyphenyl)ethyl]-2-methyl-5-(4-methylpiperazin-1-yl)benzamide] | < 10 µM | 102.3% |
| Cc1ccc(N2CCN3CCCC3C2)cc1C(=O)N[C@H](C)c1cccc2ccccc12 (stereo partly drawn) [Example 125, 5-(3,4,6,7,8,8a-Hexahydro-1H-pyrrolo[1,2-a]pyrazin-2-yl)-2-methyl-N-[(1R)-1-(1-naphthyl)ethyl]benzamide hydrochloride salt] | < 2 µM | 55.8% |
| COc1ccc([C@@H](C)NC(=O)c2cc(N3CCN(C)CC3)ccc2C)cc1F [Example 185, N-[(1R)-1-(3-Fluoro-4-methoxy-phenyl)ethyl]-2-methyl-5-(4-methylpiperazin-1-yl)benzamide] | < 10 µM | 5.6% |
| COc1cc(-c2cn(C)nc2C)cc([C@@H](C)NC(=O)c2cc(N3CCCNCC3)ccc2C)c1 [Example 265, 5-(1,4-Diazepan-1-yl)-N-[(1R)-1-[3-(1,3-dimethylpyrazol-4-yl)-5-methoxy-phenyl]ethyl]-2-methyl-benzamide] | < 2 µM | 40.7% |
| COc1ccc([C@@H](C)NC(=O)c2cc(N3CCN(CCO)CC3)ccc2C)cc1OC [Example 32, N-[(1R)-1-(3,4-Dimethoxyphenyl)ethyl]-5-[4-(2-hydroxyethyl)piperazin-1-yl]-2-methyl-benzamide] | < 5 µM | 103.5% |
| Cc1ccc(N2CCOCC2)cc1C(=O)N[C@H](C)c1cccc2ccccc12 [Example 116, 2-Methyl-5-morpholino-N-[(1R)-1-(1-naphthyl)ethyl]benzamide] | < 10 µM | 66.6% |

— patent US20240383852A1, “ANTI-VIRAL COMPOUNDS” (INFEX Therapeutics Limited, priority 2021, published 2024)
